Experimental data: ChEMBL document CHEMBL1201862, “PubChem BioAssay data set” (2004)
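Cultured in 96-well plates, cells were exposed to test compound for 48 hours across five concentrations. GI50 = concentration required for 50% inhibition of growth.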 Active and inactive are the calls of the source. Rule as the data show it: active = GI50 up to about 1.1 µM and inactive = higher.

What was measured:
Experiment in all cases: NCI-60 cell line screen, 48 h
KM-20L2 = tested on: KM-20L2
NCI/ADR-RES = tested on: NCI/ADR-RES
NCI-H23 = tested on: NCI-H23
KM12 = tested on: KM12
K562 = tested on: K562
HOP-92 = tested on: HOP-92
SNB-19 = tested on: SNB-19
SNB-75 = tested on: SNB-75
RXF 393 = tested on: RXF 393
SF-295 = tested on: SF-295
SN12C = tested on: SN12C
A549 = tested on: A549
XF498 = tested on: XF498
DLD-1 = tested on: DLD-1
NCI-H226 = tested on: NCI-H226
HOP-18 = tested on: HOP-18
OVCAR-8 = tested on: OVCAR-8
SK-MEL-28 = tested on: SK-MEL-28
UO-31 = tested on: UO-31
U-251 = tested on: U-251
UACC-62 = tested on: UACC-62
SF-268 = tested on: SF-268
UACC-257 = tested on: UACC-257
MCF7 = tested on: MCF7
COLO 205 = tested on: COLO 205
HCC 2998 = tested on: HCC 2998
M19-MEL = tested on: M19-MEL
NCI-H522 = tested on: NCI-H522
SK-OV-3 = tested on: SK-OV-3
OVCAR-4 = tested on: OVCAR-4
CAKI-1 = tested on: CAKI-1
SW-620 = tested on: SW-620
DMS-273 = tested on: DMS-273
A498 = tested on: A498
RPMI-8226 = tested on: RPMI-8226
SK-MEL-2 = tested on: SK-MEL-2
EKVX = tested on: EKVX
HL-60 = tested on: HL-60
SF-539 = tested on: SF-539
MOLT-4 = tested on: MOLT-4
HT-29 = tested on: HT-29
HCT-116 = tested on: HCT-116
IGROV-1 = tested on: IGROV-1
HCT-15 = tested on: HCT-15
Malme-3M = tested on: Malme-3M
OVCAR-5 = tested on: OVCAR-5
SK-MEL-5 = tested on: SK-MEL-5
HOP-62 = tested on: HOP-62
OVCAR-3 = tested on: OVCAR-3
CCRF-CEM = tested on: CCRF-CEM
SNB-78 = tested on: SNB-78
NCI-H460 = tested on: NCI-H460
LOX IMVI = tested on: LOX IMVI
DMS-114 = tested on: DMS-114
786-0 = tested on: 786-0
SR = tested on: SR
M14 = tested on: M14
LXFL 529 = tested on: LXFL 529
ACHN = tested on: ACHN
TK-10 = tested on: TK-10

With `C[C@H]1COC(c2ccccn2)=N1` the GI50 (KM-20L2) was > 100 µM (inactive), the GI50 (NCI/ADR-RES) was > 100 µM (inactive) and the GI50 (NCI-H23) was > 100 µM (inactive). The GI50 (KM12) was > 100 µM (inactive), the GI50 (K562) was > 100 µM (inactive) and the GI50 (HOP-92) was > 100 µM (inactive). For the same compound, the GI50 (SNB-19) was > 100 µM (inactive), the GI50 (SNB-75) was > 100 µM (inactive) and the GI50 (RXF 393) was > 100 µM (inactive). The GI50 (SF-295) was > 100 µM (inactive), the GI50 (SN12C) was > 100 µM (inactive) and the GI50 (A549) was > 100 µM (inactive). The GI50 (XF498) was > 100 µM (inactive), the GI50 (DLD-1) was > 100 µM (inactive) and the GI50 (NCI-H226) was > 100 µM (inactive). The GI50 (HOP-18) was > 100 µM (inactive), the GI50 (OVCAR-8) was > 100 µM (inactive) and the GI50 (SK-MEL-28) was > 100 µM (inactive). The GI50 (UO-31) was > 100 µM (inactive), the GI50 (U-251) was > 100 µM (inactive) and the GI50 (UACC-62) was > 100 µM (inactive). The GI50 (SF-268) was > 100 µM (inactive), the GI50 (UACC-257) was > 100 µM (inactive) and the GI50 (MCF7) was > 100 µM (inactive). For the same compound, the GI50 (COLO 205) was > 100 µM (inactive), the GI50 (HCC 2998) was > 100 µM (inactive) and the GI50 (M19-MEL) was > 100 µM (inactive). The GI50 (NCI-H522) was > 100 µM (inactive), the GI50 (SK-OV-3) was > 100 µM (inactive) and the GI50 (OVCAR-4) was > 100 µM (inactive). For the same compound, the GI50 (CAKI-1) was > 100 µM (inactive), the GI50 (SW-620) was > 100 µM (inactive) and the GI50 (DMS-273) was > 100 µM (inactive). For the same compound, the GI50 (A498) was > 100 µM (inactive), the GI50 (RPMI-8226) was > 100 µM (inactive) and the GI50 (SK-MEL-2) was > 100 µM (inactive). The GI50 (EKVX) was > 100 µM (inactive), the GI50 (HL-60) was > 100 µM (inactive) and the GI50 (SF-539) was > 100 µM (inactive). The GI50 (MOLT-4) was > 100 µM (inactive), the GI50 (HT-29) was > 100 µM (inactive) and the GI50 (HCT-116) was > 100 µM (inactive). The GI50 (IGROV-1) was > 100 µM (inactive), the GI50 (HCT-15) was greater than 100 µM and the GI50 (Malme-3M) was > 100 µM (inactive). For the same compound, the GI50 (OVCAR-5) was > 100 µM (inactive), the GI50 (SK-MEL-5) was > 100 µM (inactive) and the GI50 (HOP-62) was > 100 µM (inactive). The GI50 (OVCAR-3) was > 100 µM (inactive), the GI50 (CCRF-CEM) was > 100 µM (inactive) and the GI50 (SNB-78) was > 100 µM (inactive). For the same compound, the GI50 (NCI-H460) was > 100 µM (inactive) and the GI50 (LOX IMVI) was > 100 µM (inactive).

`COc1ccc2nc3c(C(=O)NCCN(C)C)cccc3cc2c1` was tested, and the GI50 (KM-20L2) was 0.562 µM (active), the GI50 (NCI/ADR-RES) was 1.41 µM (inactive) and the GI50 (NCI-H23) was 2.09 µM (inactive). For the same compound, the GI50 (KM12) was 2.96 µM (inactive), the GI50 (K562) was 3.07 µM (inactive) and the GI50 (HOP-92) was 2.28 µM (inactive). The GI50 (SNB-19) was 2.23 µM (inactive), the GI50 (SNB-75) was 2.17 µM (inactive) and the GI50 (RXF 393) was 1.78 µM (inactive). For the same compound, the GI50 (SF-295) was 1.96 µM (inactive), the GI50 (SN12C) was 1.75 µM (inactive) and the GI50 (A549) was 1.49 µM (inactive). For the same compound, the GI50 (XF498) was 1.85 µM (inactive), the GI50 (DLD-1) was 2.16 µM (inactive) and the GI50 (NCI-H226) was 1.44 µM (inactive). For the same compound, the GI50 (HOP-18) was > 100 µM (inactive), the GI50 (OVCAR-8) was 1.47 µM (inactive) and the GI50 (SK-MEL-28) was 2.98 µM (inactive). For the same compound, the GI50 (UO-31) was 1.44 µM (inactive), the GI50 (U-251) was 3.48 µM (inactive) and the GI50 (UACC-62) was 1.46 µM (inactive). For the same compound, the GI50 (SF-268) was 2.82 µM (inactive), the GI50 (UACC-257) was 2.11 µM (inactive) and the GI50 (MCF7) was 1.35 µM (inactive). The GI50 (COLO 205) was 0.893 µM (active), the GI50 (HCC 2998) was 3.79 µM (inactive) and the GI50 (SK-OV-3) was 2.21 µM (inactive). For the same compound, the GI50 (DMS-114) was 1.91 µM (inactive), the GI50 (OVCAR-4) was 2.6 µM (inactive) and the GI50 (CAKI-1) was 0.103 µM (active). The GI50 (SW-620) was 1.42 µM (inactive), the GI50 (DMS-273) was 1.28 µM (inactive) and the GI50 (A498) was 1.36 µM (inactive). The GI50 (RPMI-8226) was 2.16 µM (inactive), the GI50 (SK-MEL-2) was 2.49 µM (inactive) and the GI50 (EKVX) was 2.34 µM (inactive). For the same compound, the GI50 (HL-60) was 1.4 µM (inactive), the GI50 (SF-539) was 3.15 µM (inactive) and the GI50 (MOLT-4) was 0.569 µM (active). For the same compound, the GI50 (HT-29) was 1.29 µM (inactive), the GI50 (HCT-116) was 0.908 µM (active) and the GI50 (IGROV-1) was 2.03 µM (inactive). For the same compound, the GI50 (HCT-15) was 2.25 µM, the GI50 (OVCAR-5) was 2.1 µM (inactive) and the GI50 (SK-MEL-5) was 1.64 µM (inactive). The GI50 (HOP-62) was 2.63 µM (inactive), the GI50 (CCRF-CEM) was 1.78 µM (inactive) and the GI50 (SNB-78) was 3.76 µM (inactive). For the same compound, the GI50 (NCI-H460) was 0.724 µM (active) and the GI50 (LOX IMVI) was 1.63 µM (inactive).

With `CN(C)CCC1(C2=CCCC2)CC/C(=C\c2ccccc2)C1=O` (centres undefined) the GI50 (KM-20L2) was 13.1 µM (inactive), the GI50 (786-0) was 14.7 µM (inactive) and the GI50 (NCI-H23) was 21.8 µM (inactive). The GI50 (KM12) was 15.5 µM (inactive), the GI50 (K562) was 13.8 µM (inactive) and the GI50 (HOP-92) was 17.7 µM (inactive). The GI50 (SNB-19) was 14.7 µM (inactive), the GI50 (SNB-75) was 17 µM (inactive) and the GI50 (RXF 393) was 12.5 µM (inactive). The GI50 (SF-295) was 19.1 µM (inactive), the GI50 (SN12C) was 17 µM (inactive) and the GI50 (A549) was 20.3 µM (inactive). For the same compound, the GI50 (DLD-1) was 17.3 µM (inactive), the GI50 (NCI-H226) was 16.9 µM (inactive) and the GI50 (HOP-18) was 15.8 µM (inactive). The GI50 (OVCAR-8) was 16.1 µM (inactive), the GI50 (SK-MEL-28) was 21.8 µM (inactive) and the GI50 (UO-31) was 16.6 µM (inactive). The GI50 (U-251) was 16.6 µM (inactive), the GI50 (UACC-62) was 13.6 µM (inactive) and the GI50 (SR) was 25.2 µM (inactive). The GI50 (SF-268) was 21.5 µM (inactive), the GI50 (UACC-257) was 15.2 µM (inactive) and the GI50 (M14) was 16.4 µM (inactive). The GI50 (COLO 205) was 14.5 µM (inactive), the GI50 (HCC 2998) was 15.8 µM (inactive) and the GI50 (M19-MEL) was 15.2 µM (inactive). The GI50 (NCI-H522) was 14.1 µM (inactive), the GI50 (DMS-114) was 16.1 µM (inactive) and the GI50 (OVCAR-4) was 16.6 µM (inactive). For the same compound, the GI50 (CAKI-1) was 12.5 µM (inactive), the GI50 (SW-620) was 16.9 µM (inactive) and the GI50 (DMS-273) was 15.7 µM (inactive). The GI50 (A498) was 15.5 µM (inactive), the GI50 (RPMI-8226) was 14.6 µM (inactive) and the GI50 (SK-MEL-2) was 16.4 µM (inactive). For the same compound, the GI50 (EKVX) was 11.8 µM (inactive), the GI50 (LXFL 529) was 16.1 µM (inactive) and the GI50 (HL-60) was 11.8 µM (inactive). The GI50 (SF-539) was 16.6 µM (inactive), the GI50 (MOLT-4) was 14.3 µM (inactive) and the GI50 (HT-29) was 17.1 µM (inactive). For the same compound, the GI50 (HCT-116) was 19.5 µM (inactive), the GI50 (ACHN) was 15.3 µM (inactive) and the GI50 (IGROV-1) was 15.5 µM (inactive). The GI50 (HCT-15) was 13 µM, the GI50 (Malme-3M) was 15.7 µM (inactive) and the GI50 (OVCAR-5) was 19.6 µM (inactive). For the same compound, the GI50 (SK-MEL-5) was 14.7 µM (inactive), the GI50 (HOP-62) was 16.1 µM (inactive) and the GI50 (OVCAR-3) was 15.2 µM (inactive). For the same compound, the GI50 (CCRF-CEM) was 17.1 µM (inactive), the GI50 (SNB-78) was 19.7 µM (inactive) and the GI50 (NCI-H460) was 15.9 µM (inactive). The GI50 (TK-10) was 15.6 µM (inactive) and the GI50 (LOX IMVI) was 17.1 µM (inactive).
